Data taken from patent CN114306299A, “贝利司他在制备缓解和/或治疗缺血性脑卒中药物中的应用” (Institute of Materia Medica of CAMS and PUMC, priority 2020, dated 2022).

How the values were obtained:
MCAO/R rats (MCAO/R大鼠) [1] = assay: Survival rate of MCAO/R rats, 14-day dosing (2.2); assay type: in vivo, rat; settings: treated groups (10, 30, 50 mg/kg); dosing from 24 h after reperfusion, once daily for 14 days; n=9~18; compared with model group (low survival)
[2] = tested on: certain transformed cells (某些转化细胞); settings: in vitro, nanomolar concentration (<250nM); cited from earlier work
MCAO/R rats (MCAO/R大鼠) [3] = assay: Neurological function score (mNSS) in MCAO/R rats 24 h after reperfusion (1.3); assay type: in vivo, rat; settings: i.p. at reperfusion; for mNSS score vs. model group: **P<0.01 vs. model group, n=7~11
MCAO/R rats (MCAO/R大鼠) [4] = assay: TTC staining of cerebral infarct volume in MCAO/R rats, 24 h after reperfusion (1.2); assay type: in vivo, rat; settings: i.p. at reperfusion; for cerebral infarct volume vs. model group: **P<0.01 vs. model group, n=7~11
[5] = tested on: histone deacetylase, HDAC (组蛋白去乙酰化酶, HDAC); settings: in vitro; cited from earlier work
MCAO/R rats (MCAO/R大鼠) [6] = assay: Recovery of neurological function (mNSS) in MCAO/R rats, days 1, 3, 7, 14 (2.3)
[7] = treated subjects in clinical studies; cited from earlier work
tumor cells (肿瘤细胞) = settings: cited from earlier work
MCAO/R rats (MCAO/R大鼠) [8] = assay: Foot-fault test in MCAO/R rats, days 1, 3, 7, 14 (2.4); settings: from day 7; treated groups (10, 30, 50 mg/kg), once daily for 14 days from 24 h after reperfusion; *P<0.05, **P<0.01 vs. model group; n=6~9

## O=C(/C=C/c1cccc(S(=O)(=O)Nc2ccccc2)c1)NO [贝利司他]
MCAO/R rats (MCAO/R大鼠) [1]
  survival rate: 明显增高
[2]
  accumulation of acetylated histones and other proteins: 可致乙酰化组蛋白及其他蛋白积聚
  cell cycle arrest or apoptosis of certain transformed cells: 诱导细胞周期停滞或某些转化细胞凋亡
MCAO/R rats (MCAO/R大鼠) [3]; dose group not named
  neurological motor function score vs. model group: 显著降低
MCAO/R rats (MCAO/R大鼠) [3]; high dose 50 mg/kg
  mNSS score vs. model group: 显著低于模型组
MCAO/R rats (MCAO/R大鼠) [3]; medium dose 30 mg/kg
  mNSS score vs. model group: 显著低于模型组
MCAO/R rats (MCAO/R大鼠) [4]; dose group not named
  infarct volume vs. model group: 能够减少MCAO/R大鼠的梗死体积
MCAO/R rats (MCAO/R大鼠) [4]; high dose 50 mg/kg
  cerebral infarct volume vs. model group: 显著降低
MCAO/R rats (MCAO/R大鼠) [4]; medium dose 30 mg/kg
  cerebral infarct volume vs. model group: 显著降低
[5]
  concentration at which HDAC activity is inhibited: < 250 nM
MCAO/R rats (MCAO/R大鼠) [6]; from day 3, treated groups (10, 30, 50 mg/kg), once daily for 14 days from 24 h after reperfusion, *P<0.05, **P<0.01 vs. model group, n=6~9
  mNSS score vs. model group: 显著低于模型组
MCAO/R rats (MCAO/R大鼠) [6]; treated groups, with increasing time of administration (once daily for 14 days)
  neurological motor function: 神经运动功能恢复
[7]
  most common side effects: 恶心、呕吐、乏力、发热和贫血
Tumor cells (肿瘤细胞)
  cytotoxicity to tumor cells compared with normal cells: 强于正常细胞
MCAO/R rats (MCAO/R大鼠) [8]
  foot-fault rate vs. model group: 明显降低
